Read-outs that look alike come from different tables or passages of the source.
How the values were obtained:
COX-2 [1] = target: T1, COX-2 (Mus musculus, UniProt Q05769); experiment: Macrophage assay (RAW264.7), COX-2; type: cell-based, murine
T1 construct: metabolism by the newly synthesized COX-2; endogenous in cells
T1 sequence (Q05769 18-604): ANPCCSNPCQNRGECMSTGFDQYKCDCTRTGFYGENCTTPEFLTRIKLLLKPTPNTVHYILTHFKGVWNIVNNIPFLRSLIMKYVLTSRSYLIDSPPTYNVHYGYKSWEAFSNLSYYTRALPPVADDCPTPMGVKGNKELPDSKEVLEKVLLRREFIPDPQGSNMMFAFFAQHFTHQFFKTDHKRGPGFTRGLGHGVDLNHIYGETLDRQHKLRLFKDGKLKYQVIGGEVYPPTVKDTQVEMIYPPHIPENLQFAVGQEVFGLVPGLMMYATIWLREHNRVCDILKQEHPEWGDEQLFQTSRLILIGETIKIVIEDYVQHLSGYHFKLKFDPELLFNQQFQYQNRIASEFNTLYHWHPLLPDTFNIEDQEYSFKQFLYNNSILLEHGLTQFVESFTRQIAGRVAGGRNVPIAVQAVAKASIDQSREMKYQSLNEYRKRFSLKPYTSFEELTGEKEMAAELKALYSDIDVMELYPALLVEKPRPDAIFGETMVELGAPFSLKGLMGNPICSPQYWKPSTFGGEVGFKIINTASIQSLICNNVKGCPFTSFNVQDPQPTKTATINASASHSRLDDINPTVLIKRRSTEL
Description: Thus, NSAID derivatives that are identified as potentially useful in the methods described herein can be further tested using, for example, the RAW264.7 murine macrophage cell line. These cells are readily available (for example, from the American Type Culture Collection (ATCC), Manassas, Va., United States of America) and are easily cultured in large numbers. They normally express low levels of COX-1 and very low to undetectable levels of COX-2. Upon exposure to bacterial lipopolysaccharide (LPS), however, COX-2 levels increase dramatically over the ensuing 24 hour period, and the cells produce PGD2 and PGE2 from endogenous arachidonic acid stores (generally, ˜1 nmol/10^7 cells total PG formation). After LPS exposure, the addition of exogenous arachidonic acid results in the formation of additional PGD2 and PGE2 as a result of metabolism by the newly synthesized COX-2.
This system provides a number of approaches for testing the inhibitory potency of COX-2-selective ligands (e.g., inhibitors). In general, following LPS activation, cells can be treated for 30 minutes with the desired concentrations of candidate derivative(s) in DMSO. ^14C-arachidonic acid can be added, and the cells can be incubated for 15 minutes at 37° C. Product formation can be assessed following extraction and TLC separation of the culture medium. Alternatively, the effects of candidate derivatives on PG synthesis from endogenous arachidonic acid can be assessed by incubating cells with desired concentrations of candidate derivatives 30 minutes prior to LPS exposure. Following a 24-hour incubation, medium can be collected and extracted, and the amount of PGD2 and/or PGE2 can be assayed by gas chromatography-mass spectrometry, liquid chromatography-mass spectrometry, or ELISA.

Fluorescence in buffer = type: physicochemical; conditions: for Fluor. λem: emission; for Fluor. λex: excitation
COX-2 [2] = target: T2, COX-2 (Homo sapiens, UniProt P35354); experiment: IC50 determinations using purified enzymes (TLC assay), COX-2; type: biochemical; parameters: made in house; host or cells: Sf9 insect cells; conditions: assayed against purified enzymes, read-out: IC50 COX-2
T2 sequence (P35354 18-604): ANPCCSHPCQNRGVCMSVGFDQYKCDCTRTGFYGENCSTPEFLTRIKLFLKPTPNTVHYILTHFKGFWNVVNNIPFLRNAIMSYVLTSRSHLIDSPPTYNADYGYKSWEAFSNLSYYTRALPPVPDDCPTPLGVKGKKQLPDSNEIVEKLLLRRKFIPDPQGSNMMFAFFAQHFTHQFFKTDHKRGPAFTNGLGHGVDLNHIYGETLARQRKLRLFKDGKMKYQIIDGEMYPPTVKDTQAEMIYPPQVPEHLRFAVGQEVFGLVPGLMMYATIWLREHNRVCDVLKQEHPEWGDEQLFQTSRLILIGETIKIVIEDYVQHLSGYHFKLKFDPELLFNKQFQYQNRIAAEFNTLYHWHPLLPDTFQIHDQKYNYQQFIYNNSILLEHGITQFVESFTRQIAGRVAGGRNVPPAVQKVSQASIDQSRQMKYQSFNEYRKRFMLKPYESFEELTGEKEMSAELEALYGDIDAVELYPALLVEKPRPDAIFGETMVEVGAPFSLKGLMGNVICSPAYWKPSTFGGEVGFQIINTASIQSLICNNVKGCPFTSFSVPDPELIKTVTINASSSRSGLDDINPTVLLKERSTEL

[3] = Table 3, macrophage assay, read-out: IC50 COX-2

| IC50 (COX-2 [1]; [3]) [M] | Fluor. λem (Fluorescence in buffer) [nm] | Fluor. λex (Fluorescence in buffer) [nm] | IC50 (COX-2 [2]; Table 3) [nM] | IC50 (COX-2 [1]; read-out: IC50 in RAW 264.7 cells) [M] | IC50 (COX-2 [1]; Table 2, macrophage assay (M), read-out: IC50 COX-2) [M] | IC50 (COX-2 [2]; Table 2) [nM] | SMILES |
| --- | --- | --- | --- | --- | --- | --- | --- |
| 1.8e-07 | 450 | 390 | 80 | – | – | – | COc1ccc2c(c1)c(CC(=O)NCCNS(=O)(=O)c1ccc(/N=N/c3ccc(N(C)C)cc3)cc1)c(C)n2C(=O)c1ccc(Cl)cc1 [Compound 27aa, N-(2-Dabsylaminoethyl)-2-{1-(4-chlorobenzoyl)-5-methoxy-2-methyl-1H-indol-3-yl}acetamide] |
| – | – | – | 700 | 3.2e-07 | – | – | COc1ccc2c(c1)c(CC(=O)NCCCCNC(=O)c1ccc(C3=c4cc5c6c(c4Oc4c3cc3c7c4CCCN7CCC3)CCC[N+]=6CCC5)c(C(=O)[O-])c1)c(C)n2C(=O)c1ccc(Cl)cc1 [Compound 27eee] |
| 5.7e-07 | 605 | 492 | 500 | – | – | – | COc1ccc2c(c1)c(CC(=O)NCCCCNC(=O)Cc1ccc(Nc3ccc([N+](=O)[O-])c4nonc34)cc1)c(C)n2C(=O)c1ccc(Cl)cc1 [Compound 27ii, N-([2-{4-(7-nitrobenzo[1,2,5]oxadiazol-4-ylamino)phenyl}acetamido]but-4-yl)-2-{1-(4-chlorobenzoyl)-5-methoxy-2-methyl-1H-indol-3-yl]acetamide] |
| 1.88e-07 | – | – | > 25000 | – | – | – | COc1ccc2c(c1)c(CC(=O)NCCCCNC(=O)c1ccc(C(=O)O)c(-c3c4ccc(=O)cc-4oc4cc(O)ccc34)c1)c(C)n2C(=O)c1ccc(Cl)cc1 [Compound 27qq, N-[(Fluorescein-6-carboxylamido)but-4-yl]-2-[1-(4-chlorobenzoyl)-5-methoxy-2-methyl-1H-indol-3-yl)acetamide] |
| 8.9e-07 | 731 | 710 | 1000 | – | – | – | CC[N+](CC)=c1ccc2c(-c3ccccc3)c(C)c(/C=C/C=C3/N(CCCCCC(=O)NCCCCNC(=O)Cc4c(C)n(C(=O)c5ccc(Cl)cc5)c5ccc(OC)cc45)c4ccc(S(=O)(=O)[O-])cc4C3(C)C)oc-2c1 [Compound 27ttt] |
| 8.5e-08 | 670 | 618 | 1700 | – | – | – | CC[N+](CC)=c1ccc2nc3c(cc(NC(=O)CCOCCOCCOCCOCCNC(=O)Cc4c(C)n(C(=O)c5ccc(Cl)cc5)c5ccc(OC)cc45)c4ccccc43)oc-2c1 [Compound 27uu, N-[5-)1-{1-(4-chlorobenzoyl)-5-methoxy-2-methyl-1H-indol-3-yl}-2-6,9,12,15-tetraoxa-3-azaoctadecanamido]-9H-benzo[a]penoxazin-9-ylidene)-N-ethylethanaminium perchlorate] |
| – | 603 | 581 | 3500 | – | – | – | COc1ccc2c(c1)c(CC(=O)NCCCCNC(=O)c1ccc(C(=O)[O-])c(C3=c4cc5c6c(c4Oc4c3cc3c7c4CCCN7CCC3)CCC[N+]=6CCC5)c1)c(C)n2C(=O)c1ccc(Cl)cc1 [Compound 27vv] |
| 3e-08 | 493 | 355 | 66 | – | – | – | COc1ccc2c(c1)c(CC(=O)NCCNS(=O)(=O)c1cccc3c(N(C)C)cccc13)c(C)n2C(=O)c1ccc(Cl)cc1 [Compound 27x] |
| – | – | – | – | – | 1.1e-07 | 920 | COC(=O)c1cc(-c2ccc(C)cc2)n(-c2ccc(S(N)(=O)=O)cc2)n1 [Compound 30b] |

From US7736624B2, “Methods and compositions for diagnostic and therapeutic targeting of COX-2” (priority 2006, dated 2010)
